Measured values from patent US4833146A, “Tertiary hydroxyalkylxanthines, medicaments containing them and their use” (priority 1985, dated 1989).
Read-outs that look alike come from different tables or passages of the source.

Experiments:
ischemic skeletal muscle [1] = assay: Action on disturbed peripheral arterial circulation: pO2 in ischemic skeletal muscle, occlusion model on dogs; assay type: in vivo, male beagle dogs; set-up: key: W = % frequency of positive experiments × mean % pO2 increase; details: dog occlusion model
Description: The experimental animals used were male beagle dogs under sodium pentobarbital anesthesia (35 mg/kg intraperitoneally), on whose right hind extremity the femoral artery and a certain area of the lower leg muscle was exposed and on whose left hind extremity the femoral vein was exposed and a cannula inserted for infusion of the product and the femoral artery was exposed and a cannula inserted for blood pressure measurements. The animals were relaxed by administration of alcuronium chloride (0.1 mg/kg intravenously and then 0.05 mg/kg intraperitoneally every 30 minutes) and artificially ventilated in order on the one hand to avoid spontaneous contractions of the muscle with an adverse effect on the pO2 measurements and on the other hand to guarantee a uniform supply of respiratory oxygen. Another catheter inserted into the femoral vein of the right hind extremity was used to monitor the lactate concentration in the venous outflow. […]
In each experiment, the maximum percentage rise in the pO2 following administration of the substance during vascular occlusion was used as the measurement parameter for the action of the product (n=2-11). A dimensionless activity index W was calculated from three measurement values for each compound by obtaining the product of the percentage frequency of positive experiments and the average percentage increase in pO2 resulting from the positive individual values, this index both taking into account interindividual differences in the topology of the vascularization of the muscle and also recording responders and nonresponders to the test compounds and accordingly permitting a more reliable activity comparison amongst the individual products.

in vivo = details: mouse, in vivo, single dose, 7 days, read-out: Toxicity LD50 (mouse)
Description: (§1) The LD50 ranges were determined by the standard method via the mortality which arose within 7 days in NMRI mice following a single intravenous (i.v.) or intraperitoneal (i.p.) dose (NMRI=Naval Medical Research Institute).

[2] = tested on: regional cerebral circulation; assay: Action on regional cerebral circulation of anesthetized cats (heat conducting technique); assay type: in vivo, cats of both sexes; details: Felis catus, iv, 3 mg/kg i.v., read-out: Average increase in cerebral circulation as Δλ in %
Description: The percentage increase in the heat transport number λ after administration of the product is thus a measure of the improvement in circulation.
The compounds were administered intravenously in aqueous solution. The dose was 3 mg of test substance per kg of body weight. 3 to 5 individual experiments were carried out for each test product, and the average percentage increase in cerebral circulation was determined from the measurement data obtained.

NMRI mice = assay: in vivo; details: single dose, 7 days, Table 3
Description: as §1

[3] = animals and humans, cited from earlier work; for "liver first-pass" effect: especially on oral administration; for biotransformation: enzymatic oxidation of the oxo- or hydroxyhexyl side chain
[4] = tested on: ischemic skeletal muscle (tibialis anterior and extensor digitorum longus); assay: Chronic experiment on rats with unilateral occlusion of the iliac artery: metabolism in ischemic skeletal muscle (histochemical staining); assay type: in vivo
ischemic skeletal muscle [5] = assay: Chronic experiment: contractility of the ischemic skeletal muscle in rats with a ligated right femoral artery; assay type: in vivo; details: 25 mg/kg daily oral, 20 days
Description: The superiority of the xanthines of the formula I was also to be seen from another chronic experiment in which the influence on the contractility of the ischemic skeletal muscle in rats with a ligated right femoral artery was investigated. The animals received the particular test product in a daily oral dose of 25 mg/kg by a stomach tube for 20 days. Thereafter, the fatigability of the ischemic muscle on electrical stimulation with about 80 contractions per minute was determined via the decrease in contractile force after stimulation for 1, 15 and 45 minutes in comparison with untreated control animals. […] This improvement was accompanied by an increase in the mitochondrial respiratory control rate (RCR). […] The compounds according to the invention are accordingly also suitable for the treatment of muscular energy metabolism disorders of various causes, particularly mitochondrial myopathy.

[6] = tested on: isolated perfused rabbit ear; assay: Inhibiting effect on vascular contraction induced with norfenefrine on the isolated perfused rabbit ear
Text: It is today generally recognized that exclusively vasodilating drugs or agents with a very potent vasodilating action component are unsuitable for the treatment of disturbances in the microcirculation because, on the one hand, the physiological vasodilatory reserve as a rule is already completely exhausted, and on the other hand there is the risk of a steal phenomenon, which means a harmful redistribution of the nutritive blood flow in the microcirculation at the expense of the already undersupplied diseased tissue. The inhibiting effect on vascular contraction induced with norfenefrine on the isolated perfused rabbit ear was therefore investigated.

Row | SMILES | Activity index W (ischemic skeletal muscle [1]; i.d. 25 mg/kg) | Activity index W (ischemic skeletal muscle [1]; i.v. 0.6 mg/kg/min) | change in vivo at 3 mg/kg [2] [%] | also measured
1 | CCn1c(=O)n(CCCCC(C)(C)O)c(=O)c2c1ncn2CCOC [Example 37] | 950 | 1400 | – | –
2 | Cn1c(=O)n(CCCCC(C)(C)O)c(=O)c2[nH]cnc21 [Example 6, 1-(5-Hydroxy-5-methylhexyl)-3-methylxanthine] | 700 | – | – | –
3 | CCn1c(=O)n(CCCCC(C)(C)O)c(=O)c2c1ncn2C [Example 17] | – | 1525 | 9.4 | LD50 at 168 h (in vivo; iv, Table 3): > 200 mg/kg
4 | CCCn1cnc2c1c(=O)n(CCCC(C)(C)O)c(=O)n2C [Example 12, 1-(4-Hydroxy-4-methylpentyl)-3-methyl-7-propylxanthine] | 2337 | 866 | – | –
5 | CCCn1cnc2c1c(=O)n(CCCCC(C)(C)O)c(=O)n2CC [Example 18] | – | 1578 | 9.4 | LD50 at 168 h (in vivo; iv, Table 2): 100 to 200 mg/kg; Toxicity LD50 (mouse) (NMRI mice; i.v.): 100 to 200 mg/kg
6 | CCCn1c(=O)c2c(ncn2CCCCC(C)(C)O)n(C)c1=O [Example 3, 7-(5-Hydroxy-5-methylhexyl)-3-methyl-1-propylxanthine] | 1250 | 1650 | 15.5 | LD50 at 168 h (in vivo; iv, Table 2): 100 to 200 mg/kg; Toxicity LD50 (mouse) (NMRI mice; i.v.): 100 to 200 mg/kg
7 | COCn1cnc2c1c(=O)n(CCCCC(C)(C)O)c(=O)n2C [Example 28] | 2100 | – | – | –
8 | COCn1cnc2c1c(=O)n(CCCCCC(C)(C)O)c(=O)n2C [Example 27] | – | – | 10.3 | LD50 at 168 h (in vivo; iv, Table 3): > 200 mg/kg
9 | CCCn1cnc2c1c(=O)n(CCCCC(C)(C)O)c(=O)n2C [Example 9, 1-(5-Hydroxy-5-methylhexyl)-3-methyl-7-propylxanthine] | – | – | 9.4 | LD50 at 168 h (in vivo; iv, Table 3): 100 to 200 mg/kg
10 | CCOCCOCCn1cnc2c1c(=O)n(CCCCC(C)(C)O)c(=O)n2CC [Example 48] | – | – | 14.6 | LD50 at 168 h (in vivo; iv, Table 3): > 200 mg/kg
11 | Cn1cnc2c1c(=O)n(CCCCC(C)(C)O)c(=O)n2C [Example 14, 1-(5-Hydroxy-5-methylhexyl)-3,7-dimethylxanthine] | – | 960 | – | –
12 | CCC(C)(O)CCCCn1c(=O)c2c(ncn2C)n(C)c1=O (stereo not shown) [Example 10, 1-(5-Hydroxy-5-methylheptyl)-3,7-dimethylxantine] | 1965 | – | – | –
13 | CCCn1cnc2c1c(=O)n(CCCCCC(C)(C)O)c(=O)n2C [Example 16] | – | 999 | 25.8 | LD50 at 168 h (in vivo; ip, Table 2): 150 to 300 mg/kg; Toxicity LD50 (mouse) (NMRI mice; i.p.): 150 to 300 mg/kg
14 | CCn1c(=O)n(CCCCC(C)(C)O)c(=O)c2c1ncn2CCCOC [Example 43] | – | – | 19.8 | LD50 at 168 h (in vivo; iv, Table 3): > 200 mg/kg
15 | CC(O)CCCCn1c(=O)c2c(ncn2C)n(C)c1=O (stereo not shown) [1-(5-hydroxyhexyl)-3,7-dimethylxanthine] | – | – | – | "liver first-pass" effect [3]: pronounced; biotransformation [3]: rapid and complete
16 | Cn1c(=O)n(CCCCC(C)(C)O)c(=O)c2c1ncn2CCCO [Example 50] | 733 | 2631 | – | –
17 | COCn1cnc2c1c(=O)n(CCC(C)(C)O)c(=O)n2C [Example 32] | 566 | 2650 | – | –
18 | COCCOCn1cnc2c1c(=O)n(CCCCC(C)(C)O)c(=O)n2C [Example 44] | – | 1199 | – | –
19 | CCOCn1cnc2c1c(=O)n(CCCCC(C)(C)O)c(=O)n2C [Example 5, 7-Ethoxymethyl-1-(5-hydroxy-5-methylhexyl)-3-methylxanthine] | 2909 | – | – | Activity index W (ischemic skeletal muscle [1]; i.v. 0.3 mg/kg/min): 2080; proportion of oxidative fibers in the two muscles of the ischemic extremity ([4]; 3 mg/kg intraperitoneally three times daily, 5 weeks): increased significantly; LD50 at 168 h (in vivo; ip, Table 2): 300 to 600 mg/kg; LD50 at 168 h (in vivo; iv, Table 2): 150 to 300 mg/kg; mitochondrial respiratory control rate (RCR) (ischemic skeletal muscle [5]): increase; contractility values reached in the ischemic muscle (ischemic skeletal muscle [5]; compared with healthy muscle of untreated animals): normal contractility values like those in the left healthy (non-ischemic) muscle of untreated animals being reached; muscular performance in the ischemic extremity (ischemic skeletal muscle [5]; electrical stimulation for 1, 15 and 45 minutes): significant improvement; inhibition of the norfenefrine action ([6]; up to a concentration of 100 μg/ml): no inhibition
20 | CC(=O)CCCCn1c(=O)c2c(ncn2C)n(C)c1=O [Pentoxifylline, 3,7-dimethyl-1-(5-oxohexyl)-xanthine, reference compound] | – | – | 8.6 | "liver first-pass" effect [3]: pronounced; biotransformation [3]: rapid and complete; influence on muscular metabolism in the ischemic skeletal muscle ([4]; chronic experiment, iliac artery occlusion): no direct influence; action in these experiments (ischemic muscle contractility) (ischemic skeletal muscle [5]): no action; dilating effect on the norfenefrine-contracted vessels ([6]; concentration range from 10 to 100 μg/ml): dose-dependent dilating effect
21 | CCCn1cnc2c1c(=O)n(CCCC(C)(C)O)c(=O)n2CC [Example 22] | – | – | 12 | LD50 at 168 h (in vivo; iv, Table 3): > 200 mg/kg
22 | CC(O)Cn1cnc2c1c(=O)n(CCCCC(C)(C)O)c(=O)n2C (stereo not shown) [Example 8, 1-(5-Hydroxy-5-methylhexyl)-7-(2-hydroxypropyl)-3-methylxanthine] | – | 1400 | – | –
23 | Cn1c(=O)c2c(ncn2CCCCC(C)(C)O)n(C)c1=O [Example 4, 7-(5-Hydroxy-5-methylhexyl)-1,3-dimethylxanthine] | – | 1300 | – | LD50 at 168 h (in vivo; iv, Table 2): 100 to 200 mg/kg
24 | CCOCCn1cnc2c1c(=O)n(CCCCC(C)(C)O)c(=O)n2C [Example 39] | 1996 | 1567 | – | –
